Measurements published in patent US5693672A, “3,4,5-substituted benzoylguanidines, process for their preparation, their use as a medicament or diagnostic and medicament containing them” (priority 1992, dated 1997).
pIC50: −log10 of the molar value. Counter-ions that a name gives are not always drawn.

Key:
[1] = tested on: artificially induced ventricular fibrillation; conditions: rat hearts, isolated; cited from earlier work
[2] = molecular target: T1, Na^+ /H^+ exchanger of rabbit erythrocytes (Oryctolagus cuniculus, UniProt P23791); assay: Inhibition of the Na^+ /H^+ exchanger of rabbit erythrocytes (amiloride-sensitive Na^+ influx, flame photometry); assay type: cell-based, White New Zealand rabbits; conditions: pH 7.4, 37° C.
T1 construct: endogenous in cells; host or cells: erythrocytes in blood from the ear arteries of cholesterol-fed White New Zealand rabbits
Description: Inhibitors of the Na^+ /H^+ exchanger of rabbit erythrocytes:
White New Zealand rabbits (Ivanovas) received a standard diet containing 2% cholesterol for six weeks in order to activate Na^+ /H^+ exchange and thus to be able to determine the Na^+ influx into the erythrocytes via Na^+ /H^+ exchange by flame photometry. The blood was taken from the ear arteries and rendered incoagulable by 25 IU/ml of potassium heparin. A part of each sample was used for the duplicate determination of the hematocrit by centrifugation. Aliquots of 100 μl in each case were used to measure the Na^+ starting content of the erythrocytes.
In order to determine the amiloride-sensitive sodium influx, 100 μl of each blood sample were incubated at pH 7.4 and 37° C. in 5 ml in each case of a hyperosmolar salt/sucrose medium (mmol/1:140 NaCl, 3 KCl, 150 sucrose, 0.1 ouabain, 20 tris(hydroxymethyl)aminomethane). The erythrocytes were then washed three times with ice-cold MgCl2 /ouabain solution (mmol/1:112 MgCl2, 0.1 ouabain) and hemolized in 2.0 ml of distilled water. The intracellular sodium content was determined by flame photometry.
The Na^+ net influx was calculated from the difference between sodium starting values and the sodium content of the erythrocytes after incubation. The amiloride-inhibitable sodium influx resulted from the difference between the sodium content of the erythrocytes after incubation with and without 3×10^-4 mol/l amiloride. The process was also carried out in this manner in the case of the compounds according to the invention.

cardiac arrhythmias = conditions: in vivo; cited from earlier work

T1 sequence (P23791 whole entry): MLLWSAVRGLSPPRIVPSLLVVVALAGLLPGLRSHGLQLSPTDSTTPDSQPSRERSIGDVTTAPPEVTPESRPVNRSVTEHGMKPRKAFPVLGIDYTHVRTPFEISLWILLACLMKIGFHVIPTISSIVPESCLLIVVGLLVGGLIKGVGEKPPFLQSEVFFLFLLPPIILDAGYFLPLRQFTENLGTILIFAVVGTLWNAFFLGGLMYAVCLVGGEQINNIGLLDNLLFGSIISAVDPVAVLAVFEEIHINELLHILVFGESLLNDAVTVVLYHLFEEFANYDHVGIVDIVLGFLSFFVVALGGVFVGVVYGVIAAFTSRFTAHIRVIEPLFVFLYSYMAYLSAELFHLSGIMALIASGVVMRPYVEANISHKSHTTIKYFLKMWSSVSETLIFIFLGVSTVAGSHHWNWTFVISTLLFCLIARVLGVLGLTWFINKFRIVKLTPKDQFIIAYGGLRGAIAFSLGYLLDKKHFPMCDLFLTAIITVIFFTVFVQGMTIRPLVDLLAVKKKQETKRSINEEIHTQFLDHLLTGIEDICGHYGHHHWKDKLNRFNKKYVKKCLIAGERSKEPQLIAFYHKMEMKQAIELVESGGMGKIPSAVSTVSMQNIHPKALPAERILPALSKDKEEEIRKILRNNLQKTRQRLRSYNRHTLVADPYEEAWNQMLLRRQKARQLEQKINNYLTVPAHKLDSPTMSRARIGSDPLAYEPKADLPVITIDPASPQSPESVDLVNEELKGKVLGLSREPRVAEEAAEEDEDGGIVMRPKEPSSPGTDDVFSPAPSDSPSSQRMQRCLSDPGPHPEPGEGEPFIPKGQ

pIC50 [2]	SMILES	also measured
	CCN(c1nc(N)c(C(=O)N=C(N)N)nc1Cl)C(C)C [ethylisopropylamiloride, Ethylisopropylamiloride]	potency relative to amiloride in the ventricular fibrillation model [1]: even more potent than amiloride
< 6.00	CS(=O)(=O)c1cc(C(=O)N=C(N)N)ccc1-c1cccc(-c2ccccc2)c1 [Example 3, 3-Methylsulfonyl-4-(3-biphenyl)benzoylguanidine hydrochloride]	
5.77	CS(=O)(=O)c1cc(C(=O)N=C(N)N)ccc1C1CCCCC1 [Example 5, 4-Cyclohexyl-3-methylsulfonylbenzoylguanidine hydrochloride]	
6.70	CS(=O)(=O)c1cc(C(=O)N=C(N)N)ccc1C#Cc1ccccc1 [Example 7, 3-Methylsulfonyl-4-[(2'-phenyl)ethynyl]benzoylguanidine hydrochloride]	
5.52	CS(=O)(=O)c1cc(C(=O)N=C(N)N)cc(C2CCCC2)c1 [Example 13, 3-Cyclopentyl-5-methylsulfonylbenzoylguanidine hydrochloride]	
6.30	CS(=O)(=O)c1cc(C(=O)N=C(N)N)ccc1-c1ccc2ccccc2c1 [Example 2, 3-Methylsulfonyl-4-(2-naphthyl)benzoylguanidine hydrochloride]	
< 6.00	CS(=O)(=O)c1cc(C(=O)N=C(N)N)ccc1-c1ccccn1 [Example 6, 3-Methylsulfonyl-4-(2'-pyridyl)benzoylguanidine hydrochloride]	
7.00	CS(=O)(=O)c1cc(C(=O)N=C(N)N)ccc1C1CCCC1 [Example 10, 4-Cyclopentyl-3-methylsulfonylbenzoylguanidine hydrochloride]	
6.05	CS(=O)(=O)c1cc(C(=O)N=C(N)N)ccc1CCc1ccccc1 [Example 9, 3-Methylsulfonyl-4-phenylethylbenzoylguanidine hydrochloride]	
	NC(N)=NC(=O)c1nc(Cl)c(N)nc1N [amiloride]	suppression of artificially induced ventricular fibrillation [1]: suppressed completely; accompanying side effects (cardiac arrhythmias): hypotensive and saluretic action; antiarrhythmic effect (cardiac arrhythmias): only slightly pronounced
